# Experimental data as given in EP2181589A1, “Neurotoxic sterol glycosides” (Shaw, Christopher Ariel, priority 2008, dated 2010).
# “Also recorded” adds a separate entry of the source. Marks after values point to notes of the source that are not given here.
# Experiments:
# [1] = system: CD-1 mice; test: Rotarod test; type: in vivo; details: SG-fed vs control, duration of the study
# Experimental: (§1) Five-month old male CD-1 mice (30.1-35.7 g, 7.5 cm - 8.8 cm) were purchased from Charles River (Wilmington, MA). Adult mice were chosen to mimic the mean age of onset of ALS-PDC (Kurland, 1988; Kurland et al., 1994). Thirty mice for the SG study were randomly divided into 2 groups (14 control and 16 experimental animals). All animals were housed singly in a virus-free barrier facility in a room maintained at 22°C under a 12 hour light/dark cycle. The mice were provided ad libitum access to food and water.
# The synthetic SG was mixed with finely ground Purina Chow mouse pellets (Mouse Diet™, Purina) to create the experimental pellets with a SG content of 1000 µg per pellet. Dry materials were blended with a sterile silicon spatula. […] SG feeding was conducted daily for 15 weeks and mice were behaviorally monitored until sacrifice at 35 weeks (time point 1) or 52 weeks (time point 2).
# Rotorod: The rotarod was used to evaluate motor function, coordination and balance (Jones and Roberts, 1968; Sango et al., 1995; Gerlai et al., 1996a; Sango et al., 1996; Chapillon et al., 1998; Carter et al., 1999; Crawley, 1999; Gerlai and Roder, 1996). The time that a mouse could remain walking on a horizontal (Norflus et al., 1998), rotating axle (3.6 cm diameter; 16 rpm) elevated above an area of padding without falling, clenching on, or jumping off the axle was measured (Crawley, 1999), see FIGURE 15. […]
# [2] = system: CD-1 mice; test: Wire hang test; type: in vivo
# Experimental: as §1
# (§2) The synthetic SG was mixed with finely ground Purina Chow mouse pellets (Mouse Diet™, Purina) to create the experimental pellets with a SG content of 1000 µg per pellet. Dry materials were blended with a sterile silicon spatula. For every 5 g of standard feed, 2.5 mL of doubly-distilled water (dd)H2O was added and the dough was kneaded and round up into pellets. A single sterol glucoside containing pellet was placed in the feeding tray each morning before the addition of regular mouse chow (ad libitum). All experimental pellets were entirely consumed by the mice each day. Control mice were fed standard mouse chow pellets of identical weight with no additives. SG feeding was conducted daily for 15 weeks and mice were behaviorally monitored until sacrifice at 35 weeks (time point 1) or 52 weeks (time point 2).
# Wire hang: Neuromuscular strength was tested by the wire hang (or hanging wire) test (Wilson et al., 2003d; Wilson et al., 2004c; Wilson et al., 2005; Tabata et al., 2008). Both balance and grip strength are required for a mouse to keep its body suspended (Crawley, 2000). Mice were placed on a wire cage lid elevated 50 cm above a soft landing surface. The latency to fall off the wire (maximum 60 seconds) (Sango et al., 1996) was measured from the moment the wire apparatus was inverted (180°). Wire hang testing was conducted biweekly.
# [3] = system: Phosphorylated Junser73; test: Phosphorylated Jun ser73 immunofluorescence; type: in vivo, CD-1 mice; details: for Anti-pJun: SG-fed vs control
# Experimental: as §2
# Tissue-mounted slides were processed for fluorescence microscopy as follows: Sections were rinsed in coplin jars for 45 minutes at room temperature (RT) in three changes of PBS. Sections were then incubated at RT for 30 minutes in a blocking permeabilization solution made of 5% normal goat serum (NGS), 5% normal rabbit serum (NRS) or 5% BlokHen II (Aves Labs, Inc., Tigard, OR), 0.05% Triton X-100 and PBS. Subsequently, the blocking solution was tipped off and the slides were rinsed in PBS for 2 minutes. […]
compound,measurement,setting,value
CCC(C=CC(C)C1CCC2C3CC=C4CC(OC5OC(CO)C(O)C(O)C5O)CCC4(C)C3CCC12C)C(C)C (stereo not shown) [SG],Rotarod performance,[1],trend of diminished performance on the rotarod but numbers did not reach statistical significance; also recorded: decrease in the time without fall
same,increase in the time between inversion of the apparatus and falling,"[2]; SG fed mice, control group showed an increase",did not
same,Wirehang test performance,"[2]; SG-fed animals, prior to 35 weeks",decline in performance
same,Wirehang,"[2]; SG-fed vs control, time-point 2, 52 wk",Wirehang* (*p<0.05)
same,Anti-pJun immunoreactive cells,"[3]; SG-fed group over time, 35 to 52 wk",Anti-pJun immunoreactive cells (SG-fed group over time) (ns)
same,Anti-pJun,"[3]; time-point 1, 35 wk",Anti-pJun: +199%*
same,Anti-pJun,"[3]; time-point 2, 52 wk",Anti-pJun (ns)
